Results reported in PubChem BioAssay AID190 (DTP/NCI, 2004).
“And” between values parts separate entries of the source, which are not always exact repeats. Identical values can stand only once. Inconclusive results and toxic doses are left out. The calls were made as follows: active = survival T/C of 150% or more; inactive = T/C below 125% in these data.

Tested on: AKR/Lw mice, AKR lymphoma ip, median survival T/C
Experiment: NCI In Vivo Anticancer Drug Screen. Data for tumor model Lymphoma AKR (Transplanted) (intraperitoneal) in AKR/Lw mice
Conditions: endpoint: median survival time, higher = longer survival
Experimental: The antitumor activity of compounds was measured in mice bearing transplantable tumors. Survival or tumor size were measured and the results are expressed as the measurement made in the treated group (T) divided by the measurement made in the vehicle treated control group (C). The tumor model used in this assay is Lymphoma AKR (Transplanted) (intraperitoneal) in AKR/Lw mice

[1] = dose: 200.0 mg/kg/injection, schedule: Q01DX001 (ip), vehicle: Klucel (hydroxypropylcellulose) (HPC)

Measured: T/C

Cc1ccc(OS(=O)(=O)c2ccc([N+](=O)[O-])cc2)cc1
inactive: dose: 90.0 mg/kg/injection, schedule: Q01DX001 (ip), vehicle: Klucel (hydroxypropylcellulose) (HPC) 102 % of control | dose: 135.0 mg/kg/injection, schedule: Q01DX001 (ip), vehicle: Klucel (hydroxypropylcellulose) (HPC) 102 % of control | [1] 100 % of control | dose: 300.0 mg/kg/injection, schedule: Q01DX001 (ip), vehicle: Klucel (hydroxypropylcellulose) (HPC) 93 % of control

Nc1ccccc1SC1CC(=O)N(c2ccccc2)C1=O (configuration not stated)
inactive: dose: 100.0 mg/kg/injection, schedule: Q01DX001 (ip), vehicle: saline with Tween-80 94 % of control | dose: 200.0 mg/kg/injection, schedule: Q01DX001 (ip), vehicle: saline with Tween-80 94 % of control | dose: 400.0 mg/kg/injection, schedule: Q01DX001 (ip), vehicle: saline with Tween-80 94 % of control

Nc1nc(=S)c2ncn(C3CC(O)C(CO)O3)c2[nH]1 (configuration not stated)
inactive: dose: 12.5 mg/kg/injection, schedule: Q01DX009 (ip), vehicle: saline 93 % of control | dose: 25.0 mg/kg/injection, schedule: Q04DX003 (ip), vehicle: saline 108 % of control | dose: 50.0 mg/kg/injection, schedule: Q04DX003 (ip), vehicle: saline 102 % of control and 119 % of control | dose: 100.0 mg/kg/injection, schedule: Q01DX001 (ip), vehicle: saline 100 % of control | dose: 100.0 mg/kg/injection, schedule: Q04DX003 (ip), vehicle: other 98 % of control and 123 % of control | dose: 200.0 mg/kg/injection, schedule: Q01DX001 (ip), vehicle: saline 102 % of control | dose: 200.0 mg/kg/injection, schedule: Q01DX009 (ip), vehicle: saline 86 % of control and 105 % of control and 116 % of control | dose: 200.0 mg/kg/injection, schedule: Q04DX003 (ip), vehicle: saline 108 % of control and 112 % of control and 116 % of control | dose: 300.0 mg/kg/injection, schedule: Q04DX003 (ip), vehicle: saline 119 % of control | dose: 400.0 mg/kg/injection, schedule: Q01DX009 (ip), vehicle: saline 103 % of control and 110 % of control | dose: 400.0 mg/kg/injection, schedule: Q04DX003 (ip), vehicle: other 113 % of control | dose: 400.0 mg/kg/injection, schedule: Q04DX003 (ip), vehicle: saline 116 % of control and 122 % of control | dose: 500.0 mg/kg/injection, schedule: Q01DX001 (ip), vehicle: saline 105 % of control and 107 % of control and 121 % of control | dose: 500.0 mg/kg/injection, schedule: Q04DX003 (ip), vehicle: saline 103 % of control | dose: 600.0 mg/kg/injection, schedule: Q01DX001 (ip), vehicle: saline 102 % of control and 111 % of control and 119 % of control | dose: 600.0 mg/kg/injection, schedule: Q04DX003 (ip), vehicle: saline 93 % of control and 100 % of control

c1cc2cc3c(cc2cc1CC1NCCc2cc4c(cc21)OCO4)OCO3 (configuration not stated)
inactive: dose: 100.0 mg/kg/injection, schedule: Q01DX001 (ip), vehicle: Klucel (hydroxypropylcellulose) (HPC) 94 % of control | dose: 100.0 mg/kg/injection, schedule: Q04DX003 (ip), vehicle: Klucel (hydroxypropylcellulose) (HPC) 96 % of control | [1] 105 % of control | dose: 400.0 mg/kg/injection, schedule: Q01DX001 (ip), vehicle: Klucel (hydroxypropylcellulose) (HPC) 94 % of control
